{"source": "paper PMC11902296", "about": "“cAmbly: A non-toxic cell-penetrating peptide derived from Amblyomin-X with targeted delivery to mitochondrial and cytoplasmic proteins” (PLOS One, 2025)", "origin": "cited, not measured here", "key": {"tumor cells [1]": {"system": "tumor cells", "conditions": "isolated domain of Amblyomin-X", "from_the_text": "Amblyomin-X is a promising antitumoral protein that requires cellular internalization to exert its activity."}, "tumor cells [2]": {"system": "tumor cells", "conditions": "isolated domain of Amblyomin-X", "from_the_text": "One promising candidate has emerged from Amblyomin-X, a Kunitz-type protease inhibitor derived from the salivary glands of the tick Amblyomma sculptum. […] Structurally, Amblyomin-X consists of two distinct regions: a non-permeant Kunitz-type domain located at the N-terminus, which mediates the protein’s cytotoxic activity, and a disordered C-terminal tail.", "remark": "listed apart in the source"}}, "note": "No end group written: not given here.", "data": [{"sequence": "EEQTHFHFESPKLISFKVQDYWILNDIMKKNLTGISLKSEEEDADSGEID [cAmbly]", "values": [{"measurement": "ability to enter cells", "setting": "tumor cells [1]", "value": "can penetrate cells"}, {"measurement": "cytotoxic activity", "setting": "tumor cells [2]", "value": "lacks cytotoxic activity"}]}]}
